Columns and labels:
[1] = molecular target: T1, rat lung angiotensin converting enzyme preparation (Rattus norvegicus, UniProt P47820); test: In vitro test for inhibition of angiotensin converting enzyme; assay type: biochemical; details: mean of 3 experiments; read-out: 50% inhibitior. (IC50) of rat lung angiotensin converting enzyme preparation
T1 construct: rat lung angiotensin converting enzyme preparation; from tissue; host or cells: rat lung
T1 sequence (P47820 36-1313): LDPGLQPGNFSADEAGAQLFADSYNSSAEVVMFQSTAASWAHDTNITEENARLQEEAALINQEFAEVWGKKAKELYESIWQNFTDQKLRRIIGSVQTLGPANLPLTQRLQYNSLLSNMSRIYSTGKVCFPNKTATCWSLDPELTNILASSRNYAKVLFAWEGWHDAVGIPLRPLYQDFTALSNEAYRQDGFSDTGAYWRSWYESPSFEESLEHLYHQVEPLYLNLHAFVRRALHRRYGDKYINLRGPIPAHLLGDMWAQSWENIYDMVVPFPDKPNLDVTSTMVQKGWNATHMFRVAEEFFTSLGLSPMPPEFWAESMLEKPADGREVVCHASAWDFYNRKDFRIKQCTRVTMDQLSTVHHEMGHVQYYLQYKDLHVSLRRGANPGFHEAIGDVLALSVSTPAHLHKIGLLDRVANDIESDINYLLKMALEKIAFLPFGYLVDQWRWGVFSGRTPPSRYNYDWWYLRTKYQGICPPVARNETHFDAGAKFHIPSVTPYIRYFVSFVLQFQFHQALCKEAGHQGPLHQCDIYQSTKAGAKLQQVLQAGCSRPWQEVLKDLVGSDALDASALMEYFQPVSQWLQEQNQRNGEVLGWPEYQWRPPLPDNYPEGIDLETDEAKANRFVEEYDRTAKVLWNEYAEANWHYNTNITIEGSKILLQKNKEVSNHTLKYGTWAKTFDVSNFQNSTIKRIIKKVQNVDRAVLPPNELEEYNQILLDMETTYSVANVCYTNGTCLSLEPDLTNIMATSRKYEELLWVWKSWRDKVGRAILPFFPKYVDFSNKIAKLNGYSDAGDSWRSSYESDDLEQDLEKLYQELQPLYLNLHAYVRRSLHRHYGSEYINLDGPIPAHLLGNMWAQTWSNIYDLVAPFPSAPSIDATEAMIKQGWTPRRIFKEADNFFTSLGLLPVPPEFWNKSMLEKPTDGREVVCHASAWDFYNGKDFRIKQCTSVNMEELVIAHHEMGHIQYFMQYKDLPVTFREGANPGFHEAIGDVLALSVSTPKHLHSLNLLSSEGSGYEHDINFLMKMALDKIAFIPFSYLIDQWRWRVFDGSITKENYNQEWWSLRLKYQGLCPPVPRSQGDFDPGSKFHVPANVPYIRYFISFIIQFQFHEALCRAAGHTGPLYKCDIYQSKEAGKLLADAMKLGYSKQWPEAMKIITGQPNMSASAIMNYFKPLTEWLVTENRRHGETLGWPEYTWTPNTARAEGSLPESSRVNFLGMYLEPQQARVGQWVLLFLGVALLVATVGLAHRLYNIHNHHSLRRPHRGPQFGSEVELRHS
Text: 1. In vitro test for inhibition of angiotensin converting enzyme

[2] = molecular target: T2, angiotensin converting enzyme (Rattus norvegicus, UniProt P47820); test: In vivo test for inhibition of angiotensin converting enzyme: pressor responses to angiotensin I and II in anaesthetised rats
T2 construct: were each tested in anaesthetised rats; from tissue; host or cells: whole animal (anaesthetised rat)
T2 sequence (P47820 36-1313): T1 sequence (P47820 36-1313)
Method: 2. In vivo test for inhibition of angiotensin converting enzyme.
The compounds of examples 1,2,4 & 5 were each tested in anaesthetised rats for their ability to reduce the pressor responses to angiotensin I, but not those to angiotensin II. The dose of angiotensin I was 300 n.g/kg (i.v) and the dose of angiotensin II was 100 ng/kg (i.v).
The results given are the mean of those obtained from the given number of rats.
'I' is the increase in diastolic blood pressure (mm Hg) to angiotensin I (control reponse).
'%R' is the percentage reduction in control angiotensin I response after the intervals (min) from dosage.

[3] = tested on: Spontaneously hypertensive rats; test: Antihypertensive activity in spontaneously hypertensive rats (tail cuff method); assay type: in vivo
Method: 3. Antihypertensive Activity
Each determination of blood pressure was the mean of at least 6 readings. Spontaneously hypertensive rats (ages 12-18 weeks) with systolic blood pressures 170 mmH:g were considered hypertensive.
The initial blood pressure and heart rats were determined and recorded together with the % changes occuring at intervals thereafter: […]

[4] = 0.03 mg/kg i.v, 5 min from dosage
[5] = 0.03 mg/kg i.v, 10 min from dosage
[6] = 0.03 mg/kg i.v, 15 min from dosage
[7] = 0.10 mg/kg i.v, 5 min from dosage
[8] = 0.10 mg/kg i.v, 10 min from dosage
[9] = 0.10 mg/kg i.v, 15 min from dosage
[10] = 0.10 mg/kg i.v, 25 min from dosage
[11] = 0.10 mg/kg i.v, 30 min from dosage
[12] = 0.10 mg/kg i.v, 40 min from dosage
[13] = 0.10 mg/kg i.v, 45 min from dosage
[14] = 0.10 mg/kg i.v, 50 min from dosage
[15] = 0.30 mg/kg i.v, 5 min from dosage
[16] = 0.30 mg/kg i.v, 10 min from dosage
[17] = 0.30 mg/kg i.v, 15 min from dosage
[18] = 0.30 mg/kg i.v, 25 min from dosage
[19] = 0.30 mg/kg i.v, 30 min from dosage
[20] = 0.30 mg/kg i.v, 40 min from dosage
[21] = 0.30 mg/kg i.v, 45 min from dosage
[22] = 0.30 mg/kg i.v, 50 min from dosage
[23] = 30 mg/kg p.o., 1 hour post dose
[24] = 30 mg/kg p.o., 2 hours post dose
[25] = 30 mg/kg p.o., 4 hours post dose
[26] = 30 mg/kg p.o., 6 hours post dose
[27] = 30 mg/kg p.o., 24 hours post dose
[28] = 10 mg/kg p.o., 1 hour post dose
[29] = 10 mg/kg p.o., 4 hours post dose
[30] = 10 mg/kg p.o., 6 hours post dose
[31] = 10 mg/kg p.o., 24 hours post dose

| %R percentage reduction in control angiotensin I response [2, 7] | %R percentage reduction in control angiotensin I response [2, 8] | %R percentage reduction in control angiotensin I response [2, 9] | %R percentage reduction in control angiotensin I response [2, 10] | %R percentage reduction in control angiotensin I response [2, 11] | %R percentage reduction in control angiotensin I response [2, 12] | %R percentage reduction in control angiotensin I response [2, 13] | %R percentage reduction in control angiotensin I response [2, 14] | Substance | %R percentage reduction in control angiotensin I response [2, 4] | %R percentage reduction in control angiotensin I response [2, 5] | %R percentage reduction in control angiotensin I response [2, 6] | %R percentage reduction in control angiotensin I response [2, 15] | %R percentage reduction in control angiotensin I response [2, 16] | %R percentage reduction in control angiotensin I response [2, 17] | %R percentage reduction in control angiotensin I response [2, 18] | %R percentage reduction in control angiotensin I response [2, 19] | %R percentage reduction in control angiotensin I response [2, 20] | %R percentage reduction in control angiotensin I response [2, 21] | %R percentage reduction in control angiotensin I response [2, 22] | other results |
| --- | --- | --- | --- | --- | --- | --- | --- | --- | --- | --- | --- | --- | --- | --- | --- | --- | --- | --- | --- | --- |
| 60% | 64% | 57% | 41% | 38% | 36% | 32% | 24% | N-(1-Carboxypropyl)-(S)-alanyl-4α-benzyloxy-(S)-proline [Example 1] | 39% | 29% | 6% | 86% | 80% | 77% | 76% | 77% | 73% | 72% | 74% | IC50 [1]: 3.3 nM |
| 61% | 58% | 52% | 47% | 44% | 39% |  | 18% | N-[4-(2,3-dihydro-2-benzofuranyl)-l-(ethoxycar-α bonyl)-butyl]-(S)-alanyl-4αbenzyloxy-(S)-proline [Example 5] |  |  |  |  |  |  |  |  |  |  |  | % change in heart rate [3, 23]: -2 ± 2%; % change in systolic blood pressure [3, 23]: -10± 3%; % change in heart rate [3, 24]: 0 ± 4%; % change in systolic blood pressure [3, 24]: -7± 2%; % change in heart rate [3, 25]: +5 ± 3%; % change in systolic blood pressure [3, 25]: -23± 1%; % change in heart rate [3, 26]: 0 ± 3%; % change in systolic blood pressure [3, 26]: -17± 1%; % change in heart rate [3, 27]: +9 ± 5%; % change in systolic blood pressure [3, 27]: +1± 3% |
| 34% | 29% | 25% | 15% | 14% | 16% | 14% |  | N-[2-(2,3-dihydro-2-benzofuranyl)-l-(ethoxycarbonyl) -ethyl)-(S)-alanyl -4α-benzyloxy-(S)-nroline [Example 4] |  |  |  |  |  |  |  |  |  |  |  |  |

| Substance | %R percentage reduction in control angiotensin I response [2, 7] | %R percentage reduction in control angiotensin I response [2, 8] | %R percentage reduction in control angiotensin I response [2, 9] | %R percentage reduction in control angiotensin I response [2, 10] | %R percentage reduction in control angiotensin I response [2, 11] | %R percentage reduction in control angiotensin I response [2, 12] | %R percentage reduction in control angiotensin I response [2, 13] | %R percentage reduction in control angiotensin I response [2, 14] | %R percentage reduction in control angiotensin I response [2, 4] | %R percentage reduction in control angiotensin I response [2, 5] | %R percentage reduction in control angiotensin I response [2, 6] | %R percentage reduction in control angiotensin I response [2, 15] | %R percentage reduction in control angiotensin I response [2, 16] | %R percentage reduction in control angiotensin I response [2, 17] | %R percentage reduction in control angiotensin I response [2, 18] | %R percentage reduction in control angiotensin I response [2, 19] | %R percentage reduction in control angiotensin I response [2, 20] | %R percentage reduction in control angiotensin I response [2, 21] | %R percentage reduction in control angiotensin I response [2, 22] | other results |
| --- | --- | --- | --- | --- | --- | --- | --- | --- | --- | --- | --- | --- | --- | --- | --- | --- | --- | --- | --- | --- |
| N-(1-carbethoxy-3-phenylpropyl)-(S)-alanyl-4α-benzyloxy-(S)-proline [Example 2] | 67% | 66% | 61% | 53% | 42% | 47% | 39% | 29% | 23% | 25% | 19% | 82% | 81% | 80% | 69% | 67% | 69% | 65% | 60% | %R percentage reduction in control angiotensin I response ([2]; 0.03 mg/kg i.v, 25 min from dosage): 12%; % change in heart rate [3, 28]: -7 ± 3%; % change in systolic blood pressure [3, 28]: -5± 3%; % change in systolic blood pressure ([3]; 10 mg/kg p.o., 2 hours post dose): -10± 3%; % change in heart rate [3, 29]: -5 ± 4%; % change in systolic blood pressure [3, 29]: -22± 3%; % change in heart rate [3, 30]: 1 ± 4%; % change in systolic blood pressure [3, 30]: -22± 4%; % change in heart rate [3, 31]: -4 ± 3%; % change in systolic blood pressure [3, 31]: -7± 4% |

Reference: patent EP0080822A1, “Anti-hypertensive prolinol-based peptides” (BEECHAM GROUP PLC, priority 1981, dated 1983)
